Results reported in ChEMBL document CHEMBL3399953, “Structure-assisted ligand-binding analysis using fluorogenic photoaffinity labeling” (Bioorg Med Chem Lett, 2015).
Activity calls are given as the source filed them. The calls are words filed in the database; no cut-off is given here.

How the values were obtained:
[1] = target: Glutamate dehydrogenase 1, mitochondrial (Bos taurus) (UniProt P00366); assay: Binding affinity to bovine glutamate dehydrogenase ATP binding site using assessed as fluorescence intensity at 80 uM by photo affinity labeling/reverse-phase HPLC of Lys-Cdigest assay in presence of ATP
[2] = target: Glutamate dehydrogenase 1, mitochondrial (Bos taurus) (UniProt P00366); assay: Binding affinity to bovine glutamate dehydrogenase ATP binding site using assessed as coumarin-labeled pepdite retention time at 80 uM by photo affinity labeling/reverse-phase HPLC of Lys-Cdigest assay in presence of ATP
[3] = target: Glutamate dehydrogenase 1, mitochondrial (Bos taurus) (UniProt P00366); assay: Binding affinity to bovine glutamate dehydrogenase ATP binding site using assessed as photo labeling level at 80 uM by photo affinity labeling/reverse-phase HPLC of Lys-Cdigest assay in presence of ADP
[4] = target: Glutamate dehydrogenase 1, mitochondrial (Bos taurus) (UniProt P00366); assay: Binding affinity to bovine glutamate dehydrogenase ATP binding site using assessed as photo labeling level at 80 uM by photo affinity labeling/reverse-phase HPLC of Lys-Cdigest assay in presence of ATP
[5] = target: Glutamate dehydrogenase 1, mitochondrial (Bos taurus) (UniProt P00366); assay: Binding affinity to bovine glutamate dehydrogenase ATP binding site using assessed as photo labeling level at 80 uM by photo affinity labeling/reverse-phase HPLC of Lys-Cdigest assay in presence of NADH
[6] = target: Glutamate dehydrogenase 1, mitochondrial (Bos taurus) (UniProt P00366); assay: Binding affinity to bovine glutamate dehydrogenase ATP binding site using assessed as photo labeling peak time at 80 uM by photo affinity labeling/reverse-phase HPLC of Lys-Cdigest assay in presence of 100 uM NADH/10 mM glutamate
[7] = target: Glutamate dehydrogenase 1, mitochondrial (Bos taurus) (UniProt P00366); assay: Binding affinity to bovine glutamate dehydrogenase ATP binding site using assessed as decrease in photo labeling peak time at 80 uM by photo affinity labeling/reverse-phase HPLC of Lys-Cdigest assay in presence of 100 uM NADH/10 mM glutamate relative to NADH alone

Sequence of Glutamate dehydrogenase 1, mitochondrial (Bos taurus) (P00366 whole entry): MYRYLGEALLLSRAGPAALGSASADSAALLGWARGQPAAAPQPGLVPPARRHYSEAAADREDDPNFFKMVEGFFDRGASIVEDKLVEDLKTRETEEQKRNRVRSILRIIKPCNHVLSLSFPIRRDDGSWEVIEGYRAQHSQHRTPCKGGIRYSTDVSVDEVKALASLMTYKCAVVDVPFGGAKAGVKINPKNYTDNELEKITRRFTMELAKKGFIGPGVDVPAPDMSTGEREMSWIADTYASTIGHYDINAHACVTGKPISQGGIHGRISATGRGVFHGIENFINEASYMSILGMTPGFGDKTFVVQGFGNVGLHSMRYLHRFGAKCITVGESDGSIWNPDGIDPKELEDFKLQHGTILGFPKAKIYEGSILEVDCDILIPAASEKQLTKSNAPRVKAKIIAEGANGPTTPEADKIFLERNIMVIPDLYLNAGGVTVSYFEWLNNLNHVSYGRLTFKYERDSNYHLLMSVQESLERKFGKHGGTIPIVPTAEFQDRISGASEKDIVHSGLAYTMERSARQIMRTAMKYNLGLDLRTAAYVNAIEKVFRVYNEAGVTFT

SMILES | Activity [1] | Retention time [2] | Activity [3] | Activity [4] | Activity [5] | Retention time [6] | inhibition [7]
C/C(=C\c1ccc(C2(C(F)(F)F)N=N2)cc1O)C(=O)NCCNP(=O)(O)OP(=O)(O)OP(=O)(O)OC[C@H]1O[C@@H](n2cnc3c(N)ncnc32)[C@H](O)[C@@H]1O | Active | 21.1 min | 10% | 55% | 89% | 21.1 min | 59%
C/C(=C\c1ccc(C2(C(F)(F)F)N=N2)cc1O)C(=O)NCCNP(=O)(O)OP(=O)(O)OC[C@H]1O[C@@H](n2cnc3c(N)ncnc32)[C@H](O)[C@@H]1O | Active | – | Active | – | – | – | –
